The values below come from paper PMC10065791 (eLife, 2023).

SMILES strings stand for the structures.

In one assay the test system is wild-type virus NL4-3. Nature of the assay: TZM infection assay (cell culture-based viral inhibition), wild-type virus. As to conditions: Human immunodeficiency virus 1, NL43; wild-type NL4-3 virus; concentration at time of virus production reducing infectivity by 50%; TZM-bl readout. On the set-up: species or system HIV-1. How it is done:
PI dilutions were prepared by taking 10 µM stocked and performing a fivefold serial dilution using RPMI media (final drug concentration is […]). One dilution of drug was added to each well of a 24-well plate and repeated so each virus would have a full set of dilutions. Viruses for the assay were made by seeding 3 × 10^6 CEM cells in a 24-well plate and incubating with 250 µl of virus at 37°C for 2–3 hr before bringing the culture to 10 ml with RPMI media. After 48 hr, the medium was changed and repeated every 48 hr after until the culture had undergone CPE. Infected CEM cells were collected and diluted so that 1 ml of cells could be plated in each well containing a unique drug dilution. Then 24 hr later the virus supernatant was collected from each well followed by filtering through a […] then placed in –80°C. Viruses were thawed and added to 96-well plates in triplicate. TZM-bl cells were collected and diluted to a concentration of 2 × 10^5 cells/ml, 100 µl were added on top of the pre-plated viruses. Plates were kept in 37°C, 5% CO2 in an incubator for 48 hr. After 48 hr, the cells in the plates were lysed by removing the medium, washing two times with 100 µl PBS, and then lysed with 1× lysis buffer (made from 5× Promega Firefly Lysis Buffer). Plates were frozen for at least 24 hr and then thawed for 2 hr before analyzing with Promega Firefly Luciferase Kit on a luminometer. Data was analyzed with Prism 7 to fit sigmoidal dose–response curves.

The subject of assay [1] is HIV-1 NL4-3 wild-type virus. In words: Selection for resistance in CEMx174 culture with escalating inhibitor, start wild-type virus, Primer ID deep sequencing. Type of assay: cell-based. How it is done: . The selection experiments were performed under two separate starting conditions: first when the starting virus was generated from the NL4-3 clone (this clone closely approximates the clade B consensus for the protease amino acid sequence and will be referred to as ‘wild type’), then again when the starting virus was a mixture of 26 isogenic viruses each with a single mutation associated with drug resistance in the NL4-3 background. […]. For technical reasons, only five of the selections starting with the mixture of mutants reached an inhibitor concentration as high as 400 nM and are reported here (Figure 2—figure supplement 3).
Resistance mutations selected in the protease coding domain during the escalating selective pressure of increasing PI concentration were examined at various timepoints using a next-generation sequencing (NGS) protocol that included Primer ID with the MiSeq platform ([Zhou et al., 2015]). We first examined the sequence of the most abundant variant in each of the two selection schemes present at the highest inhibitor concentration reached (Figure 2A). For those selections that reached 5 μM, 8–14 mutations were present in the most abundant variant. Typically the next two most abundant variants in the population differed by a single amino acid, and on average the three most abundant variants in the 5 μM cultures accounted for 88% of the total viral population (Figure 2—source data 1). Evolution of resistance followed two pathways, one based on I50V and one based on I84V. In three cultures, V2wt, V5wt, and V2mut (which reached either 4 or 5 μM final drug concentration; V2wt indicates the virus pool selected with UMASS-2 starting with wild-type virus), these two mutations, I84V and I50V, became linked on the same genome (Figure 2A) showing they are not mutually exclusive; […].
An aliquot of 3 × 10^6 CEMx174 cells was incubated at 37°C for 2–3 hr with 250 µl of a virus stock generated from the HIV-1 infectious molecular clone pNL4-3. The culture volume was then brought to 10 ml with RPMI medium. […] After 48 hr and every 48 hr after, the cells were pelleted by centrifugation and 10 ml of fresh medium and inhibitors were added. When the culture had undergone extensive cytopathic effect (CPE) indicative of viral replication, the supernatant medium and the cells were harvested separately and stored at –80°C. The virus-containing supernatant was used to start the next round of infection, and after several rounds at the initial concentration, the inhibitor concentration was increased 1.5-fold at each subsequent round of virus passage.
We used the PID protocol to prepare MiSeq PID libraries with multiplexed primers. Viral RNA was extracted from plasma samples using the QIAamp viral RNA mini kit (QIAGEN, Hilden, Germany). Complementary DNA (cDNA) was synthesized using a cDNA primer mixture targeting protease (PR) with a block of random nucleotides in each cDNA primer serving as the PID, and SuperScript III RT (Thermo Fisher). After two rounds of bead purification of the cDNA, we amplified the cDNA using a mixture of a forward primer that targeted the upstream coding region, followed by a second round of PCR to incorporate the Illumina adaptor sequences. Gel-purified libraries were pooled and sequenced using the MiSeq 300 base paired-end sequencing protocol (Illumina). The sequencing covered the HIV-1 PR region (HXB2 2648-2914, 3001-3257).
We used the Illumina bcl2fastq pipeline for the initial processing and constructed template consensus sequences (TCSs) with TCS pipeline version 1.33 (https://github.com/SwanstromLab/PID) ([Zhou, 2019]). We then aligned TCSs to an HXB2 reference to remove sequences not at the targeted region or that had large deletions. We used the Entropy tool at LANL (https://www.hiv.lanl.gov/content/sequence/ENTROPY/entropy.html) to calculate entropy for each specimen. The sequencing data is available at NIH Sequencing Read Archive (SRA) under BioProject ID PRJNA853351.

As usually defined, the EC50 is the concentration at which the effect is half-maximal. Low readings indicate greater potency, high ones weaker potency. Take `CC[C@H](C)CN(C[C@@H](O)[C@H](Cc1ccccc1)NC(=O)O[C@H]1CO[C@H]2OCC[C@H]21)S(=O)(=O)c1ccc2ncsc2c1` [UMASS-5]: the EC50 in the assay with wild-type virus NL4-3 was determined as 4 ± 0.5 nM. Also, the “Abundance of variant at the last time point” value (shortened to “Abundance of variant”) in assay [1] (variant 10F/15V/46I/47V/50V/53L/71V/82I/84V/89T, passage 77, [PI] 5000 nM) came to 67.9%; in assay [1] (variant 10F/46I/47V/50V/53L/63P/71V/82I/84V/89M, passage 77, [PI] 5000 nM), 8.8%; in assay [1] (variant 10F/46I/47V/50V/53L/71V/82I/84V/89T, passage 77, [PI] 5000 nM), 10.9%.
With `CCC(CC)CN(C[C@@H](O)[C@H](Cc1ccccc1)NC(=O)O[C@H]1CO[C@H]2OCC[C@H]21)S(=O)(=O)c1ccc(OC)cc1` [UMASS-7], the EC50 in the assay with wild-type virus NL4-3 was 3.1 ± 0.5 nM. Also, the “Abundance of variant” value is on record as 0.2% in assay [1] (variant 10F/13V/33F/46I/47V/50V/53L/54L/67Y/71V/82I, passage 76, [PI] 5000 nM); 94.5% in assay [1] (variant 10F/13V/33F/46I/47V/50V/53L/54L/71V/82I, passage 76, [PI] 5000 nM); 0.2% in assay [1] (variant 10F/13V/33F/46I/47V/50V/53L/54L/71V/82I/87K, passage 76, [PI] 5000 nM).
Turning to `CC[C@H](C)CN(C[C@@H](O)[C@H](Cc1ccccc1)NC(=O)O[C@H]1CO[C@H]2OCC[C@H]21)S(=O)(=O)c1ccc(CO)cc1` [UMASS-3], the concentration for a half-maximal effect (EC50) in the assay on wild-type virus NL4-3 worked out at 9.1 ± 1 nM. The “Abundance of variant” value is on record as 0.9% in assay [1] (variant 10F/33F/46I/47V/50V/53L/63P/71V/76S/82I, passage 93, [PI] 5000 nM); 85.7% in assay [1] (variant 10F/33F/46I/47V/50V/53L/63P/71V/76S/82I/85V/89I, passage 93, [PI] 5000 nM); 1.1% in assay [1] (variant 10F/33F/46I/47V/50V/53L/63P/71V/76S/82I/85V/89I/91S, passage 93, [PI] 5000 nM).
In the assay with wild-type virus NL4-3, `CCC(CC)CN(C[C@@H](O)[C@H](Cc1ccccc1)NC(=O)O[C@H]1CO[C@H]2OCC[C@H]21)S(=O)(=O)c1ccc2c(c1)OCO2` [UMASS-9] returned a concentration giving a half-maximal response (EC50) of 6.4 ± 1.2 nM. Further, the “Abundance of variant” value is recorded as 0.7% in assay [1] (variant 10F/13V/33F/41K/45R/46I/47V/50V/53L/54L/66F/71V/74A/76S/82I, passage 78, [PI] 5000 nM); 92.3% in assay [1] (variant 10F/13V/33F/45R/46I/47V/50V/53L/54L/66F/71V/74A/76S/82I, passage 78, [PI] 5000 nM); 0.4% in assay [1] (variant 10F/13V/33F/45R/46I/47V/50V/53L/54L/66F/71V/74A/76S/82I/87K, passage 78, [PI] 5000 nM).
As for `CCC(CC)CN(C[C@@H](O)[C@H](Cc1ccccc1)NC(=O)O[C@H]1CO[C@H]2OCC[C@H]21)S(=O)(=O)c1ccc(N)cc1` [UMASS-6], in the assay with wild-type virus NL4-3, it took 5.2 ± 0.8 nM to reach a half-maximal effect (EC50). Further, the “Abundance of variant” value was found to be 2.2% in assay [1] (variant 10F/13V/16E/33F/46I/47A/50V/53L/71V, passage 46, [PI] 5000 nM); 42.3% in assay [1] (variant 10F/13V/33F/46I/47A/50V/53L/63P/71V, passage 46, [PI] 5000 nM); 45.1% in assay [1] (variant 10F/13V/33F/46I/47A/50V/53L/71V, passage 46, [PI] 5000 nM).
`CC[C@H](C)CN(C[C@@H](O)[C@H](Cc1ccccc1)NC(=O)O[C@H]1CO[C@H]2OCC[C@H]21)S(=O)(=O)c1ccc2c(c1)OCO2` [UMASS-4] yielded a concentration giving a half-maximal response (EC50) in the assay on wild-type virus NL4-3 of 3.2 ± 0.4 nM. The “Abundance of variant” value in assay [1] (variant 10F/11I/13V/32I/33F/43T/46L/54L/71V/82I/84V/89M/91S/92R, passage 81, [PI] 5000 nM) worked out at 87.3%; in assay [1] (variant 10F/11I/32I/33F/43T/46L/54L/71V/82I/84V/89M/91S, passage 81, [PI] 5000 nM), 1.3%; in assay [1] (variant 10F/11I/32I/33F/46L/54L/71V/82I/84V/89M/91S, passage 81, [PI] 5000 nM), 1.1%.
